Assay results published in patent US9040498B2, “1,2,3-Triazolyl purine derivatives” (RESEARCH FOUNDATION OF THE CITY UNIVERSITY OF NEW YORK, priority 2012, dated 2015).
Where two headings read alike, the source gives them in different places.

Legend:
[1] = system: p53KO HCT116 cancer cell line; assay: GI50 against p53KO HCT116 cancer cell line; details: read-out: GI50 p53KO; p53KO HCT116; four days
CMV Davis strain = assay: Anti-CMV activity in HEL cell cultures, Davis strain; format: cell-based, cytomegalovirus; details: reduce virus plaque formation by 50%
CMV AD-169 strain = assay: Anti-CMV activity in HEL cell cultures, AD-169 strain; format: cell-based, cytomegalovirus; details: reduce virus plaque formation by 50%
[2] = system: paclitaxel-resistant (PTX10) ovarian cancer cell line; assay: GI50 against paclitaxel-resistant ovarian cancer cell line PTX10
HEL cell = HEL cell effects: cell morphology (minimum cytotoxic concentration); details: minimum cytotoxic concentration causing microscopically detectable alteration of cell morphology
[3] = system: colorectal (HCT116) cancer cell line; assay: GI50 against colorectal cancer cell line HCT116
[4] = system: ovarian (1A9) cancer cell line; assay: GI50 against ovarian cancer cell line 1A9; details: read-out: GI50 1A9
[5] = system: paclitaxel-resistant (PTX22) ovarian cancer cell line; assay: GI50 against paclitaxel-resistant ovarian cancer cell line PTX22; details: read-out: GI50 PTX22
[6] = HEL cell cultures, virus input 100 PFU
[7] = read-out: GI50 PTX10, paclitaxel-resistant ovarian PTX10, four days
[8] = read-out: GI50 HCT116, colorectal HCT116, four days
[9] = paclitaxel-resistant ovarian PTX22, four days

Row | Structure (SMILES) | GI50 [1] [µM] | EC50 (CMV Davis strain; [6]) [µM] | EC50 (CMV AD-169 strain; [6]) [µM] | GI50 [2, 7] [µM] | HEL cell effects cell morphology (MDC) (HEL cell) [μM] | GI50 [3, 8] [µM] | GI50 ([4]; ovarian 1A9, four days) [µM] | GI50 [5, 9] [µM] | EC50 (CMV Davis strain; […]) [µM] | EC50 (CMV AD-169 strain; […]) [µM] | GI50 ([2]; PTX10, read-out: GI50 PTX10) [µM] | GI50 ([3]; Homo sapiens, HCT-116, read-out: GI50 HCT116) [µM] | GI50 [4] [µM] | GI50 [5] [µM]
1 | OCc1cn(-c2nc(O)c3ncn([C@@H]4O[C@H](CO)[C@@H](O)[C@H]4O)c3n2)nn1 [Compound 20, 2-[4-(Hydroxymethyl)-1,2,3-triazol-1H-yl]inosine] | 42.6 | > 270 | > 270 | > 50 | >270 | > 50 | 20.4 | 3.53 | – | – | – | – | – | –
2 | OC[C@H]1O[C@@H](n2cnc3c(O)nc(-n4cc(-c5ccc(F)cc5)nn4)nc32)[C@H](O)[C@@H]1O [Compound 24, 2-[4-(4-Fluorophenyl)-1,2,3-triazol-1H-yl]inosine] | > 50 | > 230 | > 230 | > 50 | >230 | > 50 | 34 | 31 | – | – | – | – | – | –
3 | COc1ccc(-c2cn(-c3nc(O)c4ncn([C@H]5C[C@H](O)[C@@H](CO)O5)c4n3)nn2)cc1 [Compound 26, 2-[4-(4-Methoxyphenyl)-1,2,3-triazol-1H-yl]-2′-deoxyinosine] | > 50 | – | – | > 50 | >240 | > 50 | 37.2 | 15.7 | > 240 | > 240 | – | – | – | –
4 | OCc1cn(-c2nc(O)c3ncn([C@H]4C[C@H](O)[C@@H](CO)O4)c3n2)nn1 [Compound 27, 2-[4-(Hydroxymethyl)-1,2,3-triazol-1H-yl]-2′-deoxyinosine] | > 50 | – | – | > 50 | >290 | > 50 | 49.4 | 32.9 | > 290 | > 290 | – | – | – | –
5 | O=C1c2ccccc2C(=O)N1Cc1cn(-c2nc(O)c3ncn([C@H]4C[C@H](O)[C@@H](CO)O4)c3n2)nn1 [Compound 28, 2-[4-(N-Phthalimidomethyl)-1,2,3-triazol-1H-yl]-2′-deoxyinosine] | > 50 | – | – | > 50 | >210 | > 50 | 49.6 | 32.2 | > 210 | > 210 | – | – | – | –
6 | CCCCc1cn(-c2nc(O)c3ncn([C@H]4C[C@H](O)[C@@H](CO)O4)c3n2)nn1 [Compound 30, 2-(4-n-Butyl-1,2,3-triazol-1H-yl)-2′-deoxyinosine] | > 50 | – | – | > 50 | >270 | > 50 | 46.1 | 26.9 | > 270 | > 270 | – | – | – | –
7 | CC(=O)O[C@H]1C(=O)[C@@]2(C)[C@H]([C@H](OC(=O)c3ccccc3)[C@]3(O)C[C@H](OC(=O)[C@H](O)[C@@H](NC(=O)c4ccccc4)c4ccccc4)C(C)=C1C3(C)C)[C@]1(OC(C)=O)CO[C@@H]1C[C@@H]2O [paclitaxel, reference compound] | – | – | – | – | – | – | – | – | – | – | 0.079 | 0.00685 | 0.00151 | 0.068
